# Reference: ChEMBL document CHEMBL1201862, “PubChem BioAssay data set” (2004)
# The source made the active and inactive calls. Rule as the data show it, for most assays here: actives have a measured EC50 and inactives only a lower limit.
# Columns and labels:
# [1] = reduction of Shn3 3'UTR-driven luciferase in osteoblasts – cell-based, Clone20 osteoblasts, firefly luciferase, cherry-picked, dose response (AID 624132); type: functional;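 also: firefly luciferase luminescence from reporter carrying the Shn3 3'UTR in osteoblasts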
# [2] = DRD fibroblast viability loss – cell-based, non-viral oncogenic, luminescence, dose response (AID 1934); type: functional; conditions: Homo sapiens
# BJ [3] = assay: BJ-TERT-LT-ST fibroblast viability loss – cell-based, RAS-independent, luminescence, dose response (AID 1935); type: functional; conditions: Homo sapiens;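 also: BJ fibroblasts immortalized with TERT plus LT and ST oncogenes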
# [4] = loss of viability in HepG2 cells – cell-based, CellTiter-Glo, cherry-picked, cytotoxicity control for Shn3 inhibitor project, dose response (AID 624134); type: functional
# [5] = alpha-synuclein stem-loop luciferase translation blockers – H4 neuroglioma cells, luminescence, confirmation (AID 1988); type: functional, cell-based
# [6] = Shn3 3'UTR reporter signal decrease – cell-based, Clone20 osteoblasts, firefly luciferase, cherry-pick, set 2, Schnurri-3 inhibitor project, dose response (AID 720490); type: functional;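 also: actives lower the luminescence signal as inhibitors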
# BJ [7] = assay: BJ-TERT fibroblast viability loss – cell-based, RAS-independent, luminescence, dose response (AID 1933); type: functional; conditions: Homo sapiens
# [8] = alpha-synuclein stem-loop translation blockers – luminescence, H4 neuroglioblastoma cells, dose confirmation, confirmation (AID 2454); type: functional, cell-based;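 also: H4 neuroglioblastoma cells carrying an alpha-synuclein 5'UTR luciferase reporter; potency for inhibition of the luciferase signal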
# cells = type: functional, cell-based
# BJ [9] = assay: cells; type: functional, cell-based; conditions: Homo sapiens
# [10] = luciferase reporter signal reduction – luminescence, H4-C neuroglioblastoma cells, dose response (AID 2458); type: functional, cell-based;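 also: H4 neuroglioblastoma cells stably carrying a luciferase reporter gene fusion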
# [11] = Luminescence Cell-Based Dose Response HTS to Identify Inhibitors of 5'UTR Stem-Loop Driven Prion Protein mRNA Translation in H4 Neuroglioblastoma Cells. [Related pubchem assays: 1827 (Project Summary), 1813 (Primary HTS)]; type: functional
# [12] = luciferase reporter signal suppression in cells – H4 neuroglioma cells, luminescence, dose response (AID 1990); type: functional, cell-based
# [13] = HEK-293T cell viability reduction – luminescence, B-cell screen hits, cytotoxicity control for BCR NF-kB inhibitor project, dose response (AID 489021); type: functional, cell-based;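 also: HEK-293T cells carrying an NF-kB luciferase reporter; cells exposed to compound for about 14 hours before viability readout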
# Cytochrome P450 3A4 = Cytochrome P450 3A4 (Homo sapiens, UniProt P08684); conditions: Potency;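 also: confirmatory qHTS run detecting inhibitors and substrates of CYP3A4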
# Cytochrome P450 3A4, sequence (P08684 whole entry): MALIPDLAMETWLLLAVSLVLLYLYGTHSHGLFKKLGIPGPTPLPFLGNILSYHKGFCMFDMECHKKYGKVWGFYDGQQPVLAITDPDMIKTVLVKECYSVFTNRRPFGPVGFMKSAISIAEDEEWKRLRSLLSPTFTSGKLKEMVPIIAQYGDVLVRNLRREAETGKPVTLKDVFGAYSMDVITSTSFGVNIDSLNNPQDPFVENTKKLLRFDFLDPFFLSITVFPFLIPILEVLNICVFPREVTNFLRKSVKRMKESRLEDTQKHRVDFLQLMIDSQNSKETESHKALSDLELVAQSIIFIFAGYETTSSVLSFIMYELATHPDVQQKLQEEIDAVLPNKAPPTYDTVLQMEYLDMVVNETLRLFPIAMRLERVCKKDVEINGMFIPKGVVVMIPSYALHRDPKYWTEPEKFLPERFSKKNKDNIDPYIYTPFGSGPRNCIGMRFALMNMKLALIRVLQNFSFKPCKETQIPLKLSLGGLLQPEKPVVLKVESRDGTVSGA
# [14] = A Cell Based Secondary Assay To Explore Cytotoxicity of Compounds that Sensitize Mycobacterium Tuberculosis to Beta-Lactam Antibiotics.; type: functional
# [15] = target: Glyceraldehyde-3-phosphate dehydrogenase (Homo sapiens, UniProt P04406)
# Glyceraldehyde-3-phosphate dehydrogenase, sequence (P04406 whole entry): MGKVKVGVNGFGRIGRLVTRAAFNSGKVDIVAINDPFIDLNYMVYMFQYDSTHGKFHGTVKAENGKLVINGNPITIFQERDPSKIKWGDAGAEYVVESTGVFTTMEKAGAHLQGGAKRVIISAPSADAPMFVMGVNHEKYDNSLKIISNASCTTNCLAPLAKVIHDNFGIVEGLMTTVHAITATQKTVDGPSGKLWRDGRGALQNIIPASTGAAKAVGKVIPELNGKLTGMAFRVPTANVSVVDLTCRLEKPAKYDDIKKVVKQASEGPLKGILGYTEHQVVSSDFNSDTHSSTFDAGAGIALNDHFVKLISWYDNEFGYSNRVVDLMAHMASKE
# [16] = target: Luciferin 4-monooxygenase (Photinus pyralis, UniProt P08659); assay: Counter Screen for Luciferase-based Assay Positives. [Related pubchem assays: 620, 618, 411 ]
# Luciferin 4-monooxygenase, sequence (P08659 whole entry): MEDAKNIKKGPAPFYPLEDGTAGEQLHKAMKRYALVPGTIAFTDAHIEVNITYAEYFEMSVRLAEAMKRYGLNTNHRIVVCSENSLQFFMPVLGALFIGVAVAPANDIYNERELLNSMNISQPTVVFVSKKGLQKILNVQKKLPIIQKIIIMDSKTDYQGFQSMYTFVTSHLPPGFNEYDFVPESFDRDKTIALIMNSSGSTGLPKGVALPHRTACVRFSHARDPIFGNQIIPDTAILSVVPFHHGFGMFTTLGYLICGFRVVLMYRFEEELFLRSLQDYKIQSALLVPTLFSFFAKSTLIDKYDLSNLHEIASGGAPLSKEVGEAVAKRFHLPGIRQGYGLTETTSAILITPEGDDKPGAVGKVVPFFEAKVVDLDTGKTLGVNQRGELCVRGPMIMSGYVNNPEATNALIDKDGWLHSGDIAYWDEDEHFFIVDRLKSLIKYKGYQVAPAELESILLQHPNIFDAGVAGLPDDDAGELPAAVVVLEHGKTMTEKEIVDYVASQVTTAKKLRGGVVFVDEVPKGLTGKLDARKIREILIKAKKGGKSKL
# HT-1080 = assay: HT1080 cell viability loss – fluorescence readout (AID 620); type: functional, cell-based; conditions: Homo sapiens
structure (smiles),measurement,setting,value
COc1ccc(OCc2cccc(C(=O)O)c2)cc1,AC50,[1],1.39 µM (active)
same,EC50,[2],9.09 µM (inconclusive)
same,EC50,BJ [3],> 150 µM (inconclusive)
same,AC50,[4],> 70 µM (inactive)
same,EC50,[5],< 0.1 µM (active)
same,AC50,[6],2.01 µM (active)
same,EC50,BJ [7],18.8 µM (active)
same,EC50,[8],0.267 µM (active)
same,EC50,cells,0.307 µM (active)
same,EC50,BJ [9],8.86 µM (active)
same,EC50,[10],0.26 µM (active)
same,EC50,[11],0.121 µM (active)
same,EC50,[12],0.305 µM (active)
COc1ccc(C=C(C(C)=O)C(C)=O)cc1OC,IC50,[13],> 80 µM (inactive)
Nc1cc(=O)[nH]c(=O)n1CC1CC1,AC50,Cytochrome P450 3A4,3.98 µM (inconclusive)
CCOc1cc(N2CCOCC2)c(OCC)cc1NC(=O)COc1cccc(CC)c1,CC50,[14],> 40 µM (active)
CCOC(=O)C1CCCCN1C(=O)CCc1c(C)nc2cc(-c3ccccc3)nn2c1C (stereo not drawn),IC50,[15],> 100 µM (not active)
same,EC50,[16],> 100 µM (not active)
same,EC50,[5],< 0.1 µM (active)
same,EC50,[8],1.33 µM (active)
same,EC50,cells,> 12 µM (not active)
same,EC50,HT-1080,> 50 µM (not active)
same,EC50,[10],0.972 µM (active)
same,EC50,[11],11.1 µM (active)
same,EC50,[12],< 0.1 µM (active)
Cc1ccc(O)c(/C=N/NC(=O)C2=NNC(c3ccccc3)(c3ccccc3)C2)c1,EC50,[16],5.52 µM (active)
same,EC50,HT-1080,> 50 µM (not active)
C[C@H]1[C@H](C)CC[C@]2(C(=O)O)CC[C@]3(C)C(=CCC4[C@@]5(C)C[C@@H](O)[C@H](O)[C@@](C)(CO)[C@@H]5CC[C@]43C)[C@H]12 (stereo partly drawn),AC50,Cytochrome P450 3A4,15.8 µM (inconclusive)
